Test [1] is described as follows: Antagonist activity at CRTh2 receptor in human isolated eosinophil assessed as inhibition of DK-PGD2-induced shape change after 5 mins by flow cytometry.
Test [2] can be described thus: Antagonist activity at CRTh2 receptor in human isolated eosinophil assessed as inhibition of eotaxin-induced shape change after 5 mins by flow cytometry.
Test [3] in a line: Antagonist activity at CRTh2 receptor in human isolated eosinophil assessed as inhibition of delta12-PGD2-induced shape change after 5 mins by flow cytometry. Background: Flow cytometry measures light scatter and fluorescence of single cells or particles in a stream.
Test [4] can be described thus: Antagonist activity at CRTh2 receptor in human whole blood assessed as inhibition of PGD2-induced eosinophil shape change after 5 mins by flow cytometry.
Test [5] in a line: Antagonist activity at CRTh2 receptor in human isolated eosinophil assessed as inhibition of 11-Dehydro-TXB2-induced shape change after 5 mins by flow cytometry.
The target of test [6] is T1, Prostaglandin D2 receptor 2 (Homo sapiens, UniProt Q9Y5Y4).
T1 sequence (Q9Y5Y4 whole entry): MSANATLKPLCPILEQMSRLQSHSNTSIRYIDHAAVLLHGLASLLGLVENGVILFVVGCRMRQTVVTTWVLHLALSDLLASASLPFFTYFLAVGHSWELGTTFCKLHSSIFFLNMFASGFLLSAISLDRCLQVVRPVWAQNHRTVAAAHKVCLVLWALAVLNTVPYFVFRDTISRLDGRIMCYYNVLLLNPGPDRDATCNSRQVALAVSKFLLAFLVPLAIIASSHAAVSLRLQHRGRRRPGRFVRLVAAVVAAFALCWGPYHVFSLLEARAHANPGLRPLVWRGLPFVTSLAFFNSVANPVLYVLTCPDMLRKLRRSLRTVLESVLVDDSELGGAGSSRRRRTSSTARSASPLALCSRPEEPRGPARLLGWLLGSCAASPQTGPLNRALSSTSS
The test can be described thus: Antagonist activity at CRTh2 receptor in human isolated eosinophil assessed as inhibition of DK-PGD2-induced shape change after 5 mins by flow cytometry.

By IC50 is commonly meant the concentration that gives 50% inhibition. As to `Cc1c(CC(=O)O)c2cccnc2n1Cc1ccc([S+](C)[O-])cc1` (configuration not stated), the IC50 in test [1] worked out at 51 nM. `Cc1c(CC(=O)O)c2cccnc2n1Cc1ccc(Cl)cc1`: the IC50 in test [1] was 23 nM. For the compound `Cc1c(CC(=O)O)c2cccnc2n1Cc1ccc(S(C)(=O)=O)cc1`, the IC50 in test [2] is > 10000 nM; in test [3] it was 4 nM; in test [4], 102 nM; in test [5], 4 nM.

On to `Cc1c(CC(=O)O)c2cccnc2n1Cc1ccc([N+](=O)[O-])cc1`, for which the IC50 in test [6] was determined as 24 nM.
